ChEMBL document CHEMBL4138123, “Design, synthesis and biological evaluation of novel pyrazolochalcones as potential modulators of PI3K/Akt/mTOR pathway and inducers of apoptosis in breast cancer cells” (Eur J Med Chem, 2017)

Tests used:
Format in all cases: functional
[1] = system: MCF7; test: Cytotoxicity against human MCF7 cells assessed as growth inhibition after 48 hrs by sulforhodamine B assay; conditions: MCF7, 48 h
[2] = system: HCC 2998; test: Cytotoxicity against human HCC2998 cells assessed as growth inhibition after 48 hrs by sulforhodamine B assay; conditions: HCC 2998, 48 h
[3] = system: ACHN; test: Cytotoxicity against human ACHN cells assessed as growth inhibition after 48 hrs by sulforhodamine B assay
[4] = system: M14; test: Cytotoxicity against human M14 cells assessed as growth inhibition after 48 hrs by sulforhodamine B assay; conditions: M14, 48 h
[5] = system: OVCAR-5; test: Cytotoxicity against human OVCAR5 cells assessed as cell growth at 100 uM after 48 hrs by sulforhodamine B assay relative to control; conditions: OVCAR-5, 48 h, read-out: Activity
[6] = system: COLO 205; test: Cytotoxicity against human COLO205 cells assessed as cell growth at 100 uM after 48 hrs by sulforhodamine B assay relative to control; conditions: COLO 205, 48 h, read-out: Activity
[7] = system: K562; test: Cytotoxicity against human K562 cells assessed as cell growth at 100 uM after 48 hrs by sulforhodamine B assay relative to control; conditions: K562, 48 h, read-out: Activity
[8] = system: OVCAR-3; test: Cytotoxicity against human OVCAR3 cells assessed as cell growth at 1 uM after 48 hrs by sulforhodamine B assay relative to control; conditions: OVCAR-3, 48 h, read-out: Activity
[9] = system: HL-60(TB); test: Cytotoxicity against human HL-60(TB) cells assessed as cell growth at 10 uM after 48 hrs by sulforhodamine B assay relative to control; conditions: HL-60, 48 h, read-out: Activity
[10] = system: COLO 205; test: Cytotoxicity against human COLO205 cells assessed as cell growth at 0.01 uM after 48 hrs by sulforhodamine B assay relative to control; conditions: COLO 205, 48 h, read-out: Activity
[11] = system: 786-0; test: Cytotoxicity against human 786-0 cells assessed as cell growth at 0.1 uM after 48 hrs by sulforhodamine B assay relative to control; conditions: 786-0, 48 h, read-out: Activity
[12] = system: Malme-3M; test: Cytotoxicity against human MALME-3M cells assessed as cell growth at 10 uM after 48 hrs by sulforhodamine B assay relative to control; conditions: read-out: Activity
[13] = system: COLO 205; test: Cytotoxicity against human COLO205 cells assessed as cell growth at 1 uM after 48 hrs by sulforhodamine B assay relative to control; conditions: COLO 205, 48 h, read-out: Activity
[14] = system: NCI-H322M; test: Cytotoxicity against human NCI-H322M cells assessed as cell growth at 0.1 uM after 48 hrs by sulforhodamine B assay relative to control; conditions: read-out: Activity
[15] = system: IGROV-1; test: Cytotoxicity against human IGROV1 cells assessed as cell growth at 100 uM after 48 hrs by sulforhodamine B assay relative to control; conditions: IGROV-1, 48 h, read-out: Activity
[16] = system: UO-31; test: Cytotoxicity against human UO31 cells assessed as cell growth at 0.01 uM after 48 hrs by sulforhodamine B assay relative to control; conditions: UO-31, 48 h, read-out: Activity
[17] = system: NCI-H23; test: Cytotoxicity against human NCI-H23 cells assessed as cell growth at 1 uM after 48 hrs by sulforhodamine B assay relative to control; conditions: NCI-H23, 48 h, read-out: Activity
[18] = system: HOP-62; test: Cytotoxicity against human HOP62 cells assessed as cell growth at 0.01 uM after 48 hrs by sulforhodamine B assay relative to control; conditions: HOP-62, 48 h, read-out: Activity
[19] = system: MDA-MB-468; test: Cytotoxicity against human MDA-MB-468 cells assessed as cell growth at 1 uM after 48 hrs by sulforhodamine B assay relative to control; conditions: MDA-MB-468, 48 h, read-out: Activity
[20] = system: UO-31; test: Cytotoxicity against human UO31 cells assessed as cell growth at 1 uM after 48 hrs by sulforhodamine B assay relative to control; conditions: UO-31, 48 h, read-out: Activity
[21] = system: HT-29; test: Cytotoxicity against human HT-29 cells assessed as cell growth at 1 uM after 48 hrs by sulforhodamine B assay relative to control; conditions: HT-29, 48 h, read-out: Activity
[22] = system: IGROV-1; test: Cytotoxicity against human IGROV1 cells assessed as cell growth at 0.1 uM after 48 hrs by sulforhodamine B assay relative to control; conditions: IGROV-1, 48 h, read-out: Activity
[23] = system: A498; test: Cytotoxicity against human A498 cells assessed as cell growth at 100 uM after 48 hrs by sulforhodamine B assay relative to control; conditions: A498, 48 h, read-out: Activity
[24] = system: SR; test: Cytotoxicity against human SR cells assessed as cell growth at 0.1 uM after 48 hrs by sulforhodamine B assay relative to control; conditions: read-out: Activity
[25] = system: Malme-3M; test: Cytotoxicity against human MALME-3M cells assessed as cell growth at 100 uM after 48 hrs by sulforhodamine B assay relative to control; conditions: read-out: Activity
[26] = system: Malme-3M; test: Cytotoxicity against human MALME-3M cells assessed as cell growth at 1 uM after 48 hrs by sulforhodamine B assay relative to control; conditions: read-out: Activity
[27] = system: HCT-15; test: Cytotoxicity against human HCT15 cells assessed as cell growth at 0.1 uM after 48 hrs by sulforhodamine B assay relative to control; conditions: HCT-15, 48 h, read-out: Activity
[28] = system: A498; test: Cytotoxicity against human A498 cells assessed as cell growth at 0.1 uM after 48 hrs by sulforhodamine B assay relative to control; conditions: A498, 48 h, read-out: Activity
[29] = system: SF-268; test: Cytotoxicity against human SF268 cells assessed as cell growth at 0.01 uM after 48 hrs by sulforhodamine B assay relative to control; conditions: SF-268, 48 h, read-out: Activity
[30] = system: SNB-19; test: Cytotoxicity against human SNB19 cells assessed as cell growth at 1 uM after 48 hrs by sulforhodamine B assay relative to control; conditions: SNB-19, 48 h, read-out: Activity
[31] = system: M14; test: Cytotoxicity against human M14 cells assessed as cell growth at 0.1 uM after 48 hrs by sulforhodamine B assay relative to control; conditions: M14, 48 h, read-out: Activity
[32] = system: RXF 393; test: Cytotoxicity against human RXF393 cells assessed as cell growth at 10 uM after 48 hrs by sulforhodamine B assay relative to control; conditions: RXF 393, 48 h, read-out: Activity
[33] = system: M14; test: Cytotoxicity against human M14 cells assessed as cell growth at 10 uM after 48 hrs by sulforhodamine B assay relative to control; conditions: M14, 48 h, read-out: Activity
[34] = system: MDA-MB-231; test: Cytotoxicity against human MDA-MB-231 cells assessed as cell growth at 100 uM after 48 hrs by sulforhodamine B assay relative to control; conditions: MDA-MB-231, 48 h, read-out: Activity
[35] = system: MDA-MB-468; test: Cytotoxicity against human MDA-MB-468 cells assessed as cell growth at 0.1 uM after 48 hrs by sulforhodamine B assay relative to control; conditions: MDA-MB-468, 48 h, read-out: Activity
[36] = system: UO-31; test: Cytotoxicity against human UO31 cells assessed as cell growth at 100 uM after 48 hrs by sulforhodamine B assay relative to control; conditions: UO-31, 48 h, read-out: Activity
[37] = system: NCI-H226; test: Cytotoxicity against human NCI-H226 cells assessed as cell growth at 100 uM after 48 hrs by sulforhodamine B assay relative to control; conditions: NCI-H226, 48 h, read-out: Activity

## COc1ccc(-c2cc(/C=C/C(=O)c3ccc4c(c3)OCO4)[nH]n2)cc1OC
[1]
  GI50: 0.93 µM
[2]
  GI50: 1.74 µM
[3]
  GI50: 1.59 µM
[4]
  GI50: 1.91 µM

## COc1cc(-c2cc(/C=C/C(=O)c3ccc(Cl)c(Cl)c3)[nH]n2)cc(OC)c1OC
[5]
  growth at 100 µM: 16%
[6]
  growth at 100 µM: -42%
[7]
  growth at 100 µM: -7%
[8]
  growth at 1 µM: 102%
[9]
  growth at 10 µM: 43%
[10]
  growth at 0.01 µM: 103%
[11]
  growth at 0.1 µM: 94%
[12]
  growth at 10 µM: 72%
[13]
  growth at 1 µM: 54%
[14]
  growth at 0.1 µM: 92%
[1]
  LC50: > 100 µM
  TGI: > 100 µM
[15]
  growth at 100 µM: 9%
[16]
  growth at 0.01 µM: 85%
[17]
  growth at 1 µM: 95%
[18]
  growth at 0.01 µM: 99%
[19]
  growth at 1 µM: 76%
[20]
  growth at 1 µM: 81%
[21]
  growth at 1 µM: 96%
[22]
  growth at 0.1 µM: 98%
[23]
  growth at 100 µM: -25%
[24]
  growth at 0.1 µM: 89%
[2]
  LC50: > 100 µM
  TGI: 31.4 µM
[3]
  LC50: > 100 µM
  TGI: > 100 µM
[25]
  growth at 100 µM: 24%
[26]
  growth at 1 µM: 95%
[27]
  growth at 0.1 µM: 94%
[28]
  growth at 0.1 µM: 89%
[29]
  growth at 0.01 µM: 92%
[30]
  growth at 1 µM: 90%
[31]
  growth at 0.1 µM: 94%
[32]
  growth at 10 µM: 9%
[33]
  growth at 10 µM: 61%
[34]
  growth at 100 µM: 2%
[4]
  LC50 (concentration killing 50% of cells): > 100 µM
  TGI: > 100 µM
[35]
  growth at 0.1 µM: 91%
[36]
  growth at 100 µM: 18%

## COc1cc(-c2cc(/C=C/C(=O)c3ccc4c(c3)OCO4)[nH]n2)cc(OC)c1OC
[6]
  growth at 100 µM: -100%
[7]
  growth at 100 µM: -10%
[8]
  growth at 1 µM: 102%
[9]
  growth at 10 µM: -21%
[10]
  growth at 0.01 µM: 105%
[11]
  growth at 0.1 µM: 97%
[12]
  growth at 10 µM: 26%
[13]
  growth at 1 µM: 93%
[14]
  growth at 0.1 µM: 95%
[1]
  LC50: > 100 µM
[15]
  growth at 100 µM: -8%
[16]
  growth at 0.01 µM: 86%
[17]
  growth at 1 µM: 97%
[18]
  growth at 0.01 µM: 101%
[19]
  growth at 1 µM: 74%
[20]
  growth at 1 µM: 81%
[21]
  growth at 1 µM: 103%
[22]
  growth at 0.1 µM: 97%
[23]
  growth at 100 µM: -38%
[24]
  growth at 0.1 µM: 101%
[2]
  LC50: 6.43 µM
  TGI: 3.54 µM
[3]
  LC50: 7.32 µM
  TGI: 3.71 µM
[25]
  growth at 100 µM: -56%
[26]
  growth at 1 µM: 94%
[27]
  growth at 0.1 µM: 92%
[28]
  growth at 0.1 µM: 79%
[29]
  growth at 0.01 µM: 91%
[30]
  growth at 1 µM: 84%
[31]
  growth at 0.1 µM: 97%
[32]
  growth at 10 µM: -95%
[33]
  growth at 10 µM: 15%
[34]
  growth at 100 µM: 21%
[4]
  LC50 (concentration killing 50% of cells): > 100 µM
  TGI: > 100 µM
[35]
  growth at 0.1 µM: 90%
[36]
  growth at 100 µM: -79%

## COc1ccc(C(=O)/C=C/c2cc(-c3ccc(OC)c(OC)c3)n[nH]2)cc1OC
[5]
  growth at 100 µM: -41%
[6]
  growth at 100 µM: -70%
[8]
  growth at 1 µM: 88%
[9]
  growth at 10 µM: 4%
[10]
  growth at 0.01 µM: 90%
[11]
  growth at 0.1 µM: 96%
[12]
  growth at 10 µM: -27%
[13]
  growth at 1 µM: 82%
[14]
  growth at 0.1 µM: 105%
[1]
  GI50: 0.937 µM
  TGI: 8.02 µM
[15]
  growth at 100 µM: -2%
[37]
  growth at 100 µM: -5%
[16]
  growth at 0.01 µM: 89%
[17]
  growth at 1 µM: 94%
[18]
  growth at 0.01 µM: 83%
[19]
  growth at 1 µM: 55%
[20]
  growth at 1 µM: 72%
[21]
  growth at 1 µM: 63%
[22]
  growth at 0.1 µM: 104%
[23]
  growth at 100 µM: -55%
[24]
  growth at 0.1 µM: 81%
[2]
  GI50: 1.74 µM
  TGI: 3.19 µM
[3]
  GI50: 1.59 µM
  TGI: 3.83 µM
[25]
  growth at 100 µM: -11%
[26]
  growth at 1 µM: 104%
[27]
  growth at 0.1 µM: 95%
[28]
  growth at 0.1 µM: 81%
[29]
  growth at 0.01 µM: 96%
[30]
  growth at 1 µM: 78%
[31]
  growth at 0.1 µM: 94%
[32]
  growth at 10 µM: -84%
[33]
  growth at 10 µM: -58%
[34]
  growth at 100 µM: -28%
[4]
  GI50: 1.91 µM
  TGI: 4.11 µM
[35]
  growth at 0.1 µM: 80%
[36]
  growth at 100 µM: -68%
